Measurements: US20160067272A1, “METHODS FOR TREATING IMMUNE DISEASES” (priority 2013, published 2016)

How the values were obtained:
[1] = tested on: Human peripheral blood CD4+ T cells; assay: Human CD4+ T cells under Th1 polarizing conditions (flow cytometry); type: cell-based; details: increasing NAD+
Description: The inventors next investigated whether NAD^− regulates CD4^+ T cell differentiation in Th1 polarizing conditions. Isolated naïve CD4^+ T cells were cultured with anti-CD3/CD28 antibodies in presence of recombinant IL-12 and IL-2 cytokines and anti-IL4 antibody. […] In contrast to Th0 polarizing conditions, NAD^+ induced a robust IL-10 secretion (>3500 pg/ml) in Th1 cytokine environment (FIG. 1A). Furthermore, pro-inflammatory cytokines such as TNF-α and IL-6 were reduced by NAD^+ (FIG. 7C). […] Furthermore, the study tested whether NAD^+ promoted the shift of human CD4^+ T helper cells in Th1 polarizing conditions towards IL-10 cytokine production. Human peripheral blood CD4^| T cells were activated with anti-CD3/CD28 antibodies under Th1 polarizing conditions (recombinant IL-12 and IL-2 cytokines and anti-IL4 antibody) with increasing concentrations of NAD+. After 96 hours of culture, CD4^+IL-10^+IFNγ^+ cell frequency was assessed by flow cytometry analysis. […]
(§1) All recombinant cytokines and antibodies were purchased from EBIOSCIENCE except recombinant TGF-β cytokine (R&D SYSTEMS, Minneapolis, Minn.). After 96 hrs of culture supernatants and cells were collected and analyzed by ELISA and flow cytometry, respectively.

naïve CD4+ T cells [2] = assay: Naïve CD4+ T cell differentiation under Th2 polarizing conditions; type: cell-based, mouse
Description: Next, the effects of NAD^+ on activated CD4+ T cells were tested in Th2 polarizing conditions. […] In the absence of NAD^−, CD4^+ T cells cultured in Th2 cytokine environment barely produced IL-17A cytokine while in the presence of increasing concentrations of NAD^+, cultured cells produced large amounts (>2000 pg/ml) in a dose dependent manner (FIG. 2A). […] In contrast, production of the pro-inflammatory cytokine TNF-α was inhibited in the presence of NAD^− (FIG. 7D). […] Thus, these findings indicate that NAD^+ drives the switch from classical Th2/IL-10^+ toward Th2/IL-17A^+ producing cells.
(§2) Single-cell leukocyte suspensions were obtained from spleens from 8-10 week old DBA mice and CD4^− T cells were isolated by negative selection using a CD4^+ T cell isolation kit (MILTENYI BIOTEC, Bergisch Gladbach, Germany). Cells were further sorted using α-CD4-PE (EBIOSCIENCE, San Diego, Calif.) and purities of CD4^+ T cells after isolation were >98%.
as §1
(§3) Fluorescently labeled anti-mouse α-CD4 (GK1.5), α-CD25 (PC61), α-IFN-γ (XMG1.2) and unlabeled α-CD16/CD32 (2.4G2) antibodies were obtained from BD BIOSCIENCES (San Jose, Calif.). Fluorescently labeled anti-mouse α-IL-4 (FJK-16s), α-IL-10 (JES5-16E3), α-IL-17A (eBio17B7), and anti-TGFβ (TW7-16B4) were obtained from eBIOSCIENCE (San Diego, Calif.). Intracellular staining for IL-4, IL-10, IL-17A, IFNγ and TGFβ was performed according to manufacturers' protocols. Splenocytes were re-stimulated in complete media (RPMI media containing 10% FCS, 1% L-Glutamine, 1% Penicillin/Streptomycin; all Bio Whittaker, Walkersville, Md.) for 4 hours at 37° C. with ionomycin, phorbol 12-myristate 13-acetate and Brefelding A (EBIOSCIENCE). Cells were fixed and permeabilized using CYTOFIX/CYTOPERM solution (BD BIOSCIENCES). Flow cytometry measurements of single-cell suspensions were performed on a FACSCalibur using standard procedures and data were analyzed using FLOWJO software (TREE STAR, Ashland, Oreg.).

naïve CD4+ T cells [3] = assay: Naïve CD4+ T cell differentiation without polarizing cytokines (Th0); type: cell-based, mouse
Description: It has been shown that NAD^+ can regulate T cell activation^36-38, but its role in T cell development was not shown. In this study, it was tested whether NAD^+ was able to regulate T cell differentiation in vitro. Naïve CD4^+ T cells were isolated from spleen of DBA mice and cultured for 96 hrs in presence of increasing NAD^+ concentration and in presence of recombinant IL-2 and stimulated with anti-CD3/CD28 antibodies. Cytokine expression and secretion were analyzed by flow cytometry and ELISA, respectively. […] Of note, the production of pro-inflammatory cytokines such as IL-6 and TNF-α or the immunosuppressive cytokine IL-10 were inhibited by NAD^| (FIG. 7A).
as §2, §1, §3

C57BL/6 mice = details: mouse, in vivo, ip
Description: C57BL/6 mice (8-10 weeks old) were daily administered 60 mg of NAD^+ or a placebo solution (PBS) intraperitoneally during 4 days. Blood and spleen were collected after 4 days of treatment. Absolute number of lymphocytes in the blood was determined using a hemocytometer (model 850 FS, Drew Scientific, Miami lakes, Fla.). To determine absolute lymphocyte number in spleens, cells were isolated and counted with a hemocytometer then stained with antibodies anti-CD4^+, CD3^+ or B220^+ and percentage was determined by flow analysis.

naïve CD4+ T cells [4] = assay: Naïve CD4+ T cell differentiation under Th1 polarizing conditions (ELISA, flow cytometry); type: cell-based, mouse
Description: The inventors next investigated whether NAD^− regulates CD4^+ T cell differentiation in Th1 polarizing conditions. Isolated naïve CD4^+ T cells were cultured with anti-CD3/CD28 antibodies in presence of recombinant IL-12 and IL-2 cytokines and anti-IL4 antibody. […] In contrast to Th0 polarizing conditions, NAD^+ induced a robust IL-10 secretion (>3500 pg/ml) in Th1 cytokine environment (FIG. 1A). Furthermore, pro-inflammatory cytokines such as TNF-α and IL-6 were reduced by NAD^+ (FIG. 7C). […] Furthermore, the study tested whether NAD^+ promoted the shift of human CD4^+ T helper cells in Th1 polarizing conditions towards IL-10 cytokine production. Human peripheral blood CD4^| T cells were activated with anti-CD3/CD28 antibodies under Th1 polarizing conditions (recombinant IL-12 and IL-2 cytokines and anti-IL4 antibody) with increasing concentrations of NAD+. After 96 hours of culture, CD4^+IL-10^+IFNγ^+ cell frequency was assessed by flow cytometry analysis.
as §2, §1, §3

With `NC(=O)c1ccc[n+]([C@@H]2O[C@H](COP(=O)([O-])OP(=O)(O)OC[C@H]3O[C@@H](n4cnc5c(N)ncnc54)[C@H](O)[C@@H]3O)[C@@H](O)[C@H]2O)c1` [NAD+, nicotinamide adenine dinucleotide] the IL-17A [1] was “moderate increase”, the “IL-10 cytokine production by CD4+IFN-γ producing cells” value ([1]; flow cytometry) was “robust IL-10 cytokine production” and the IL-4 cytokine production (naïve CD4+ T cells [2]; 96 hrs, ELISA) was “did not affect”. The IL-10 cytokine production (naïve CD4+ T cells [2]; 96 hrs, ELISA) was “reduced”, the IL-13 cytokine production (naïve CD4+ T cells [2]; ELISA) was “did not affect” and the TNF-α production (naïve CD4+ T cells [2]; ELISA) was “inhibited”. The “CD4+IL10+ cell frequency” value (naïve CD4+ T cells [2]; flow cytometry) was “decreased number”, the “CD4+IL17A+ cells” value (naïve CD4+ T cells [2]; flow cytometry) was “increased number” and the “CD4+IL-4+ cell frequency” value (naïve CD4+ T cells [2]; flow cytometry) was “no changes”. The IL-17A secretion (naïve CD4+ T cells [2]; increasing NAD+, dose dependent, ELISA) was > 2000 pg/mL, the IFNγ cytokine production (naïve CD4+ T cells [3]; Th0, 96 hrs, ELISA) was “promote a robust” and the IL-4 cytokine production (naïve CD4+ T cells [3]; Th0, 96 hrs, ELISA) was “inhibit”. For the same molecule, the IL-6 production (naïve CD4+ T cells [3]; Th0, 96 hrs, ELISA) was “inhibited”, the IL-10 production (naïve CD4+ T cells [3]; Th0, 96 hrs, ELISA) was “inhibited” and the IL-17 cytokine production (naïve CD4+ T cells [3]; Th0, 96 hrs, ELISA) was “promote a robust”. The TNF-α production (naïve CD4+ T cells [3]; Th0, 96 hrs, ELISA) was “inhibited”, the “CD4+IFNγ+ cell frequency” value (naïve CD4+ T cells [3]; Th0, flow cytometry) was “increased” and the “CD4+IL-4+ cell frequency” value (naïve CD4+ T cells [3]; Th0, flow cytometry) was “reduced”. The “CD4+IL-17+ cell frequency” value (naïve CD4+ T cells [3]; Th0, flow cytometry) was “increased”, the TGFβ production (naïve CD4+ T cells [3]; Th0 polarizing conditions) was “no TGFβ production” and the “absolute number of circulating lymphocytes in the blood and spleens” value (C57BL/6 mice) was “did not affect”. The IFN-γ cytokine production (naïve CD4+ T cells [4]; 96 hrs, ELISA) was “did not change”, the IL-6 production (naïve CD4+ T cells [4]; 96 hrs, ELISA) was “reduced” and the IL-10 secretion (naïve CD4+ T cells [4]; 96 hrs, ELISA) was > 3500 pg/mL. The IL-17A cytokine production (naïve CD4+ T cells [4]; 96 hrs, ELISA) was 400 pg/mL, the TNF-α production (naïve CD4+ T cells [4]; 96 hrs, ELISA) was “reduced” and the “IL-10 production by Th1-IFN-γ producing cells” value (naïve CD4+ T cells [4]; flow cytometry) was “promoted”. For the same molecule, the “frequency of CD4+IFN-γ cells” value (naïve CD4+ T cells [4]; flow cytometry) was “increased frequencies”, the “frequency of CD4+IL17A+ cells” value (naïve CD4+ T cells [4]; flow cytometry) was “increased frequencies” and the “frequency of CD4+IL-10+ cells” value (naïve CD4+ T cells [4]; flow cytometry) was “increased frequencies”.
